Columns and labels:
[1] = system: MCR; assay: Antiproliferative activity against human MCR cells after 72 hrs by MTT assay; format: cell-based; details: MCR
[2] = system: SW-620; assay: Antiproliferative activity against human SW620 cells after 72 hrs by MTT assay; format: functional, cell-based; details: SW-620, 72 h
[3] = system: HepG2; assay: Antiproliferative activity against human HepG2 cells after 72 hrs by MTT assay; format: functional, cell-based; details: HepG2, 72 h
[4] = system: MCF7; assay: Antiproliferative activity against human MCF7 cells after 72 hrs by MTT assay; format: functional, cell-based; details: MCF7, 72 h
[5] = system: HeLa; assay: Antiproliferative activity against human HeLa cells after 72 hrs by MTT assay; format: functional, cell-based
[6] = Antiproliferative activity against human MIAPaCa2 cells after 72 hrs by MTT assay; format: functional, cell-based; details: MIA PaCa-2, 72 h
[7] = system: MCR; assay: Antiproliferative activity against human MCR cells after 72 hrs by MTT assay
[8] = system: K562; assay: Antiproliferative activity against apoptosis-resistant, Philadelphia chromosome-positive human K562 cells after 72 hrs by PrestoBlue colorimetric assay; format: functional, cell-based; details: K562, 72 h
[9] = system: BJ; assay: Antiproliferative activity against human BJ cells after 72 hrs by PrestoBlue colorimetric assay; format: cell-based
[10] = system: WI-38; assay: Antiproliferative activity against human WI38 cells after 72 hrs by MTT assay; format: cell-based; details: Homo sapiens, WI-38, 72 h

COc1nc(CC(O)COCc2ccccc2)c(C)c(OC)n1 (stereo unspecified)
IC50 [1]: > 100 µM | IC50 [2]: > 100 µM | IC50 [3]: > 100 µM | IC50 [4]: > 100 µM | IC50 [5]: > 100 µM | IC50 [6]: > 100 µM

COCn1c(CC(COCc2ccccc2)COCc2ccccc2)cc(=O)[nH]c1=O
IC50 [2]: > 100 µM | IC50 [3]: > 100 µM | IC50 [4]: > 100 µM | IC50 [7]: > 100 µM | IC50 [5]: > 100 µM | IC50 [6]: > 100 µM

COCn1c(CC(O)(COCc2ccccc2)COCc2ccccc2)cc(=O)[nH]c1=O
IC50 [2]: > 100 µM | IC50 [3]: > 100 µM | IC50 [4]: > 100 µM | IC50 [7]: > 100 µM | IC50 [5]: > 100 µM | IC50 [6]: > 100 µM

C[Si](C)(C)CCOCn1c(CC(O)CO)cc(=O)[nH]c1=O (stereo unspecified)
IC50 [2]: > 100 µM | IC50 [3]: > 100 µM | IC50 [4]: > 100 µM | IC50 [7]: > 100 µM | IC50 [5]: > 100 µM | IC50 [6]: > 100 µM

COCn1c(CC(O)(CO)CO)cc(=O)[nH]c1=O
IC50 [2]: > 100 µM | IC50 [3]: > 100 µM | IC50 [4]: > 100 µM | IC50 [7]: > 100 µM | IC50 [5]: > 100 µM | IC50 [6]: > 100 µM

O=c1cc(CC(COCc2ccccc2)COCc2ccccc2)[nH]c(=O)[nH]1
IC50 [2]: > 100 µM | IC50 [3]: > 100 µM | IC50 [4]: > 100 µM | IC50 [7]: > 100 µM | IC50 [5]: > 100 µM | IC50 [6]: > 100 µM

Cc1cn(-c2cc(NC(=O)c3ccc(C)c(Nc4nccc(-c5cccnc5)n4)c3)cc(C(F)(F)F)c2)cn1 [NILOTINIB]
IC50 [8]: 2.4 µM | IC50 [9]: 12.8 µM

COc1cc(CC(O)(COCc2ccccc2)COCc2ccccc2)nc(OC)n1
IC50 [2]: > 100 µM | IC50 [3]: > 100 µM | IC50 [4]: > 100 µM | IC50 [7]: > 100 µM | IC50 [5]: > 100 µM | IC50 [6]: > 100 µM

Cc1c(CC(O)COCc2ccccc2)[nH]c(=O)[nH]c1=O (stereo unspecified)
IC50 [2]: > 100 µM | IC50 [3]: > 100 µM | IC50 [4]: > 100 µM | IC50 [7]: > 100 µM | IC50 [5]: > 100 µM | IC50 [6]: > 100 µM

COc1cc(CC(O)COCc2ccccc2)nc(OC)n1 (stereo unspecified)
IC50 [2]: > 100 µM | IC50 [3]: > 100 µM | IC50 [4]: > 100 µM | IC50 [7]: > 100 µM | IC50 [5]: > 100 µM | IC50 [6]: > 100 µM

COc1cc(CC(COCc2ccccc2)COCc2ccccc2)nc(OC)n1
IC50 [2]: > 100 µM | IC50 [3]: 0.3 µM | IC50 [4]: 0.3 µM | IC50 [7]: 18.5 µM | IC50 [5]: 3.5 µM

C[Si](C)(C)CCOCn1c(CC(O)(CO)CO)cc(=O)[nH]c1=O
IC50 [2]: > 100 µM | IC50 [3]: > 100 µM | IC50 [4]: > 100 µM | IC50 [7]: > 100 µM | IC50 [5]: > 100 µM | IC50 [6]: > 100 µM

COCn1c(=O)[nH]c(CC(COCc2ccccc2)COCc2ccccc2)c(C)c1=O
IC50 [2]: 25.6 µM | IC50 [4]: 21.6 µM | IC50 [5]: 17 µM | IC50 [10]: 19.4 µM | IC50 [6]: 27.3 µM

Cc1c(CC(O)CO)n(COCC[Si](C)(C)C)c(=O)[nH]c1=O (stereo unspecified)
IC50 [2]: > 100 µM | IC50 [3]: > 100 µM | IC50 [4]: > 100 µM | IC50 [7]: > 100 µM | IC50 [5]: > 100 µM | IC50 [6]: > 100 µM

C[Si](C)(C)CCOCn1c(CC(O)COCc2ccccc2)cc(=O)[nH]c1=O (stereo unspecified)
IC50 [2]: > 100 µM | IC50 [3]: > 100 µM | IC50 [4]: > 100 µM | IC50 [7]: > 100 µM | IC50 [5]: > 100 µM | IC50 [6]: > 100 µM

Cc1c(CC(O)COCc2ccccc2)n(COCC[Si](C)(C)C)c(=O)[nH]c1=O (stereo unspecified)
IC50 [2]: > 100 µM | IC50 [3]: > 100 µM | IC50 [4]: > 100 µM | IC50 [7]: > 100 µM | IC50 [5]: > 100 µM | IC50 [6]: > 100 µM

C[Si](C)(C)CCOCn1c(CC(O)(COCc2ccccc2)COCc2ccccc2)cc(=O)[nH]c1=O
IC50 [2]: > 100 µM | IC50 [3]: > 100 µM | IC50 [4]: > 100 µM | IC50 [7]: > 100 µM | IC50 [5]: > 100 µM | IC50 [6]: > 100 µM

COCn1c(CC(O)COCc2ccccc2)c(C)c(=O)[nH]c1=O (stereo unspecified)
IC50 [2]: > 100 µM | IC50 [3]: > 100 µM | IC50 [4]: > 100 µM | IC50 [7]: > 100 µM | IC50 [5]: > 100 µM | IC50 [6]: > 100 µM

O=c1cc(CC(O)COCc2ccccc2)[nH]c(=O)[nH]1 (stereo unspecified)
IC50 [2]: > 100 µM | IC50 [3]: > 100 µM | IC50 [4]: > 100 µM | IC50 [7]: > 100 µM | IC50 [5]: > 100 µM | IC50 [6]: > 100 µM

COCn1c(CC(O)CO)c(C)c(=O)[nH]c1=O (stereo unspecified)
IC50 [2]: > 100 µM | IC50 [3]: > 100 µM | IC50 [4]: > 100 µM | IC50 [7]: > 100 µM | IC50 [5]: > 100 µM | IC50 [6]: > 100 µM

COc1nc(CC(O)(COCc2ccccc2)COCc2ccccc2)c(C)c(OC)n1
IC50 [6]: 6.1 µM

COCn1c(CC(COCc2ccccc2)COCc2ccccc2)c(C)c(=O)[nH]c1=O
IC50 [2]: 72.1 µM | IC50 [4]: 72.6 µM | IC50 [5]: 29.7 µM | IC50 [10]: 30.8 µM | IC50 [6]: 55.9 µM

O=c1cc(CC(O)(COCc2ccccc2)COCc2ccccc2)[nH]c(=O)[nH]1
IC50 [2]: > 100 µM | IC50 [3]: > 100 µM | IC50 [4]: > 100 µM | IC50 [7]: > 100 µM | IC50 [5]: > 100 µM | IC50 [6]: > 100 µM
